IC90 data for 23 compounds are collected here from patent US20230203043A1, “NOVEL IMIDAZOPYRAZINE DERIVATIVES” (Hoffmann-La Roche Inc., priority 2020, published 2023).

Where a name gives a salt, the structure may show the parent alone.

In one test the test system is Acinetobacter baumannii ATCC17961. In words: Antimicrobial susceptibility testing: 90% growth inhibitory concentration (IC90) determination in Iso-Sensitest broth, OD600 growth. In kind it is cell-based. The following applies: Acinetobacter baumannii, ATCC17961, 16 h, read-out: A. baumannii ATCC 17961 IC90 (uM), strain ATCC 17961, OD600 growth over 16 h. In short, it runs like this:
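Compounds were twofold serially diluted in DMSO across 10 points (e.g. 50 to 0.097 μM final) and inoculated at ~5×10^(5) CFU/ml. Plates incubated at 35±2° C, with OD600 read every 20 minutes over 16 h. IC90 was derived from growth inhibition during logarithmic growth.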
By IC90 is commonly meant the concentration at which the effect reaches the 90% level. `Cc1cc(Nc2nccn3c(-c4cn(CC#N)nc4C(F)(F)F)cnc23)ccc1C(=O)N1CCN(C(=O)N[C@@H]2CNC[C@H]2O)CC1` [Example 419, 4-[4-[[3-[1-(cyanomethyl)-3-(trifluoromethyl)pyrazol-4-yl]imidazo[1,2-a]pyrazin-8-yl]amino]-2-methylbenzoyl]-N-[(3R,4R)-4-hydroxypyrrolidin-3-yl]piperazine-1-carboxamide formate]: the IC90 is 0.654 µM.

For the compound `N[C@@H]1CC[C@@H](C(=O)N2CCN(C(=O)c3ccc(Nc4nccn5c(-c6cn(CC(F)F)nc6C(F)(F)F)cnc45)cc3Cl)CC2)C1` [Example 574, (4-((1R,3R)-3-aminocyclopentane-1-carbonyl)piperazin-1-yl)(2-chloro-4-((3-(1-(2,2-difluoroethyl)-3-(trifluoromethyl)-1H-pyrazol-4-yl)imidazo[1,2-a]pyrazin-8-yl)amino)phenyl)methanone formate], the IC90 was 0.242 µM. Regarding `CCc1cc(Nc2nccn3c(-c4cn(CC#N)nc4C(F)(F)F)cnc23)ccc1C(=O)NCC(=O)N[C@H]1CCNC1` [Example 758, 4-[[3-[1-(cyanomethyl)-3-(trifluoromethyl)pyrazol-4-yl]imidazo[1,2-a]pyrazin-8-yl]amino]-2-ethyl-N-[2-oxo-2-[[(3S)-pyrrolidin-3-yl]amino]ethyl]benzamide formate], the IC90 was 0.693 µM. Consider `COc1ccc(Cn2cc(-c3cnc4c(Nc5ccc(C(=O)N6CCNCC6)c(Cl)c5)nccn34)c(C(F)(F)F)n2)nn1` [Example 159, [2-chloro-4-[[3-[1-[(6-methoxypyridazin-3-yl)methyl]-3-(trifluoromethyl)pyrazol-4-yl]imidazo[1,2-a]pyrazin-8-yl]amino]phenyl]-piperazin-1-ylmethanone formate], for which the IC90 came to 0.408 µM. As for `Cc1cc(Nc2nccn3c(-c4cn(C)nc4C(F)(F)F)cnc23)ccc1C(=O)N1CCN(C(=O)[C@H]2C[C@H](O)CN2)CC1` [Example 476, formic acid; [4-[(2R,4S)-4-hydroxypyrrolidine-2-carbonyl]piperazin-1-yl]-[2-methyl-4-[[3-[1-methyl-3-(trifluoromethyl)pyrazol-4-yl]imidazo[1,2-a]pyrazin-8-yl]amino]phenyl]methanone], the IC90 was found to be 2.01 µM. With `N#CCn1cc(-c2cnc3c(Nc4ccc(C(=O)N5CCN(CC(=O)NCCCN)CC5)c(Cl)c4)nccn23)c(C(F)(F)F)n1` [Example 603, N-(3-aminopropyl)-2-(4-(2-chloro-4-((3-(1-(cyanomethyl)-3-(trifluoromethyl)-1H-pyrazol-4-yl)imidazo[1,2-a]pyrazin-8-yl)amino)benzoyl)piperazin-1-yl)acetamide formate], the IC90 is 0.384 µM.

For `CCc1cc(Nc2nccn3c(-c4cn(CC#N)nc4C(F)(F)F)cnc23)ccc1C(=O)NCC(=O)N1CC(N)C1` [Example 716, N-[2-(3-aminoazetidin-1-yl)-2-oxo-ethyl]-4-[[3-[1-(cyanomethyl)-3-(trifluoromethyl)pyrazol-4-yl]imidazo[1,2-a]pyrazin-8-yl]amino]-2-ethyl-benzamide formate], the IC90 came to 0.426 µM.

The same test, now with this note: Acinetobacter baumannii, ATCC17961, 16 h, strain ATCC 17961, OD600 growth over 16 h, read-out: A. baumannii ATCC 17961 IC90.
Regarding `N[C@H]1C[C@@H](NC(=O)N2CCN(C(=O)c3ccc(Nc4nccn5c(-c6cn(CC(F)F)nc6C(F)(F)F)cnc45)cc3Cl)CC2)C1` [Example 585, N-((1s,3s)-3-aminocyclobutyl)-4-(2-chloro-4-((3-(1-(2,2-difluoroethyl)-3-(trifluoromethyl)-1H-pyrazol-4-yl)imidazo[1,2-a]pyrazin-8-yl)amino)benzoyl) piperazine-1-carboxamide formate], the IC90 amounted to 0.325 µM.

As for `N#CCn1cc(-c2cnc3c(Nc4ccc(C(=O)N5CCN(C(=O)[C@H]6CC[C@@H](N)C6)CC5)c(F)c4)nccn23)c(C(F)(F)F)n1` [Example 807, 2-(4-(8-((4-(4-((1S,3R)-3-aminocyclo-pentane-1-carbonyl)piperazin-1-carbonyl)-3-fluorophenyl)amino)imidazo [1,2-a]pyrazin-3-yl)-3-(trifluoromethyl)-1H-pyrazol-1-yl)acetonitrile hydrochloride], the IC90 is 0.31 µM. For `CCc1cc(Nc2nccn3c(-c4cn(COC)nc4C(F)F)cnc23)ccc1C(=O)N1CCNCC1` [Example 801, (4-((3-(3-(difluoromethyl)-1-(methoxymethyl)-1H-pyrazol-4-yl)imidazo[1,2-a]pyrazin-8-yl)amino)-2-ethylphenyl) (piperazin-1-yl)methanone], the 90% effect concentration (IC90) stood at 3 µM. Turning to `Cc1cc(Nc2nccn3c(-c4c[nH]nc4C(F)(F)F)cnc23)ccc1C(=O)N1CCN(C(=O)[C@@H]2C[C@@H](O)CN2)CC1` [Example 479, [4-[(2S,4R)-4-hydroxypyrrolidine-2-carbonyl]piperazin-1-yl]-[2-methyl-4-[[3-[3-(trifluoromethyl)-1H-pyrazol-4-yl]imidazo[1,2-a]pyrazin-8-yl]amino]phenyl]methanone hydrochloride], the IC90 was found to be 0.624 µM. Turning to `O=C(c1ccc(Nc2nccn3c(-c4c[nH]nc4C(F)(F)F)cnc23)cc1Cl)N1CC2(CNC2)C1` [Example 111, [2-chloro-4-[[3-[3-(trifluoromethyl)-1H-pyrazol-4-yl]imidazo[1,2-a]pyrazin-8-yl]amino]phenyl]-(2,6-diazaspiro[3.3]heptan-2-yl)methanone], the IC90 came out at 0.997 µM. On to `N#CCn1cc(-c2cnc3c(Nc4ccc(C(=O)N5CCNCC5)c(Cl)c4)nccn23)c(C(F)(F)F)n1` [Example 226, 2-[4-[8-[3-chloro-4-(piperazine-1-carbonyl)anilino]imidazo[1,2-a]pyrazin-3-yl]-3-(trifluoromethyl)pyrazol-1-yl]acetonitrile], for which the IC90 was 0.088 µM. As for `C[C@H](N)C(=O)N1CCN(C(=O)c2ccc(Nc3nccn4c(-c5c[nH]nc5C(F)(F)F)cnc34)cc2Cl)CC1` [Example 206, (2S)-2-amino-1-[4-[2-chloro-4-[[3-[3-(trifluoromethyl)-1H-pyrazol-4-yl]imidazo[1,2-a]pyrazin-8-yl]amino]benzoyl]piperazin-1-yl]propan-1-one], the IC90 came out at 0.169 µM. Same read-out and setting: in the case of `NCC(=O)N1CCN(C(=O)c2ccc(Nc3nccn4c(-c5cn(CC6CC6)nc5C(F)(F)F)cnc34)cc2F)CC1` [Example 814, 2-amino-1-(4-(4-((3-(1-(cyclopropyl-methyl)-3-(trifluoromethyl)-1H-pyrazol-4-yl)imidazo[1,2-a]pyrazin-8-yl)amino)-2-fluorobenzoyl)piperazin-1-yl)ethan-1-one hydrochloride] it was 0.14 µM. Same read-out and setting: in the case of `C[C@@H]1CN(C(=O)c2ccc(Nc3nccn4c(-c5c[nH]nc5C(F)(F)F)cnc34)cc2Cl)CCN1` [Example 323, [2-chloro-4-[[3-[3-(trifluoromethyl)-1H-pyrazol-4-yl]imidazo[1,2-a]pyrazin-8-yl]amino]phenyl]-[(3R)-3-methylpiperazin-1-yl]methanone] it was 1.05 µM. Same read-out and setting: as for `CCc1cc(Nc2nccn3c(-c4cn(CC(F)F)nc4C(F)F)cnc23)ccc1C(=O)N1CCN(C(=O)[C@H](N)C(C)C)CC1` [Example 768, (R)-2-amino-1-(4-(4-((3-(1-(2,2-difluoroethyl)-3-(difluoromethyl)-1H-pyrazol-4-yl)imidazo[1,2-a]pyrazin-8-yl)amino)-2-ethylbenzoyl)piperazin-1-yl)-3-methylbutan-1-one], the figure is 0.916 µM; as for `CCc1cc(Nc2nccn3c(-c4c[nH]nc4C(F)(F)F)cnc23)ccc1C(=O)NCCOC[C@@H](C)N` [Example 204, N-[2-[(2R)-2-aminopropoxy]ethyl]-2-ethyl-4-[[3-[3-(trifluoromethyl)-1H-pyrazol-4-yl]imidazo[1,2-a]pyrazin-8-yl]amino]benzamide], 0.256 µM; as for `CCc1cc(Nc2nccn3c(-c4cn(C)nc4C(F)F)cnc23)ccc1C(=O)NCCOCCN` [Example 347, N-[2-(2-aminoethoxy)ethyl]-4-[[3-[3-(difluoromethyl)-1-methylpyrazol-4-yl]imidazo[1,2-a]pyrazin-8-yl]amino]-2-ethylbenzamide], 1.67 µM. For the compound `C[C@H](N)C(=O)N1CCN(C(=O)c2ccc(Nc3nccn4c(-c5cn(CC#N)nc5C(F)(F)F)cnc34)cc2Cl)CC1` [Example 187, 2-[4-[8-[4-[4-[(2S)-2-aminopropanoyl]piperazine-1-carbonyl]-3-chloroanilino]imidazo[1,2-a]pyrazin-3-yl]-3-(trifluoromethyl)pyrazol-1-yl]acetonitrile], the IC90 is 0.159 µM. As to `Cc1cc(Nc2nccn3c(-c4c[nH]nc4C(F)(F)F)cnc23)ccc1C(=O)N1CCN(C(=O)[C@H]2CNC[C@H](O)C2)CC1` (racemic) [Example 439, [2-methyl-4-[[3-[3-(trifluoromethyl)-1H-pyrazol-4-yl]imidazo[1,2-a]pyrazin-8-yl]amino]phenyl]-[4-[rac-(3R,5R)-5-hydroxypiperidine-3-carbonyl]piperazin-1-yl]methanone hydrochloride], the IC90 stood at 0.834 µM.

On to `O=C(c1ccc(Nc2nccn3c(-c4c[nH]nc4C(F)(F)F)cnc23)cc1Cl)N1CCN(C(=O)[C@]2(O)CCCNC2)CC1` [Example 247, [2-chloro-4-[[3-[3-(trifluoromethyl)-1H-pyrazol-4-yl]imidazo[1,2-a]pyrazin-8-yl]amino]phenyl]-[4-[(3S)-3-hydroxypiperidine-3-carbonyl]piperazin-1-yl]methanone], for which the IC90 was 0.116 µM.

The test is the same for the next values; noted with them: strain ATCC 17961, OD600 growth over 16 h, read-out: A. baumannii ATCC 17961 IC90.
“(3-aminoazetidin- 1-yl)-[2-chloro-4- [[3-[1-(2,2- difluoroethyl)-3- pyrazol-4- yl]imidazo[1,2- a]pyrazin-8- yl]amino]phenyl] methanone [Example 101]”: the IC90 amounted to 0.138 µM.
